Results reported in US8202904B2, “α-cyano-4-fluoro-3-phenoxybenzyl meta-halo pyrethrate, a process for preparing the same and the uses thereof” (East China Normal University, priority 2007, dated 2012).
Values after ≈ are worked out from the molar mass of the structure shown. Read-outs that look alike come from different tables or passages of the source.

Columns and labels:
[1] = test system: Culex pipiens pallens fourth instar wiggler; test: Killing effect on wiggler, WHO immersing method, LC50; format: in vivo; conditions: for Relative toxicity: from wiggler LC50, Cypermethrin = 100
Method: The following pyrethrates were tested as representatives according to the method recommended by the World Health Organization (WHO) (Zongbing ZHANG, the assay of toxicity of insecticides, the Science Press, 1988), the commonly used testing breed, Culex pipiens pallens fourth instar wiggler is used as a subject for biological assay, test temperature: 26±1° C., humidity: 70±10%; immersing method: a solution of a certain amount the compound to be tested in acetone was mixed evenly with pure water in the gradually decreasing concentration of 500, 250, 100, 50, 25, 12.5, 6.25, 3.125, 1, 0.5, 0.25, 0.1, 0.05, 0.025, 0.01, 0.005, 0.0025, 0.0001 mg/L, and the mortality of wiggler after 24 hours was calculated and LC50 was calculated to preliminarily evaluate the insecticidal activity. The results were shown in Table I. Compound 1-5 are representative examples of the compound of formula (I) of the present invention: the compounds involved in preparation Example 1-5 were prepared;
At the same time, their relative toxicities were compared with those of Cypermethrin, and Deltamethrin.

[2] = test system: Mythimna separata; test: Killing effect on Mythimna separata, dipped corn leaves fed to larvae; format: in vivo
Method: The killing effect on Mythimna separata was tested using Compounds 2 and 3, which are representative examples of the compound of formula (I) of the present invention, Compound 9, polyfluorobenzyl meta-halo pyrethrate, which has the highest insecticidal activity to Mythimna separata as a control example.
Mythimna separata: test temperature: 26±1° C., humidity: 70±10%; the corn leaves was immersed, and then were taken out after they were dipped in a liquor in dimethyl sulfoxide for 5 seconds. The liquor was dried in the shade and the corn leaves were cut away to feed larvae at the beginning of the third instar. Each treatment was done in triplicate. The number of killed insects was counted after 48 hours to calculate the mortality.

[3] = test system: Aphis medicaginis kock; test: Killing effect on aphids, immersion; format: in vivo
Method: The killing effect on aphids was tested using Compound 2 and 3, which are representative examples of the compound of formula (I) of the present invention, Compound 9 as a control example. Aphis medicaginis kock; test temperature: 26±1° C., humidity: 70±10%; test method: immersion; adult insects together with bean sprouts were immersed in a liquor in dimethyl sulfoxide for 5 seconds, after which the bean sprouts were heeled in a solid support. Each treatment was done in triplicate. The number of the killed insects was checked after 24 hours to calculate the mortality.

[4] = test system: Tetrangychus cinnabarinus; test: Killing effect on Tetrangychus cinnabarinus, immersion; format: in vivo; conditions: after 24 hours
Method: The killing effect on acarids was tested using Compound 2 and 3, which are representative examples of the compound of formula (I) of the present invention, Compound 9 as a control example. Tetrangychus cinnabarinus, test temperature: 26±1° C. humidity: 70±10%; test method: immersion; adult insects together with horsebean leaves were immersed in a liquor in dimethyl sulfoxide for 5 seconds, after which the leaves were inserted into a small bottle. Each treatment was done in triplicate. The number of the killed insects was checked after 24 hours to calculate the mortality.

[5] = test system: Musca domestica; test: Striking down effect on Musca domestica, liquid film contact method; format: in vivo; set-up: unit not given here; conditions: Musca domestica adults, film from 1 ml of 0.1% liquor in acetone in 500 ml conical flask
Method: The striking down effect on Musca domestica was tested using Compounds 2 and 3, which are representative examples of the compound of formula (I) of the present invention, Compound 9 as a control example. Musca domestica, an in-house cultured sensitive strain, the adult insects in eclosion for 3-5 days were used, and the male and female insects are half and half. Test temperature: 26±1° C., humidity: 70±10%, test method: liquid film contact method. 1 ml of 0.1% liquor in acetone was evenly coated on a 500 ml conical flask to form a film. After the film was dry, 20˜25 adult insects were put into the flask, and the striking down time and striking down number were observed, and each treatment was done in triplicate.

[6] = test system: Blattela germanica; test: Striking down effect on cockroaches, liquid film contact method; format: in vivo; set-up: unit not given here; conditions: Blattela germanica male adults, film at 54 mg/m^2, 22±1° C.
Method: The striking down effect on Blattela germanica was tested using Compound 2 and 3, which are representative examples of the compound of formula (I) of the present invention, Compound 9 as a control example. Blattela germanica, an in-house cultured sensitive strain, male adult insects were used. Test temperature: 22±1° C., test method: liquid film contact method. A liquor in acetone was evenly coated at the amount of 54 mg/m^2 on the inner wall of a wild mouth bottle to form a film. After the film was dry, 10 adult insects were put into each bottle, and the striking down time and striking down number were observed, and each treatment was done in triplicate.

[7] = Stability test, ultraviolet lamp irradiation, gas chromatography analysis; format: physicochemical; conditions: 30 min, 3 mM
Method: 0.15 mmol of the compound of Preparation Example 2 (cis-α-cyano-3-phenoxy-4-fluoro-benzyl-2,2-dimethyl-3-(2-chlorovinyl)cyclopropane carboxylate) and 0.15 mmol of the corresponding dichloride compound (cis-α-cyano-3-phenoxy-4-fluoro-benzyl-2,2-dimethyl-3-(2,2-dichlorovinyl)cyclopropane carboxylate) were added to two vessels separately, to which 50 ml of cyclohexane were added separately. They were irradiated by a 500 W ultraviolet lamp for 30 min respectively. Then to each of the vessels were added 0.15 mmol of n-hexane as an internal standard for gas chromatography analysis. […] The photodegradation rate of the former is 1.9 times of that of the latter. That is to say, if the same amounts were used, the residue of the former in the environment is lower than that of the latter.

[8] = Acute toxicity on rats by oral administration; conditions: rat, in vivo
[9] = 48 h, read-out: The average mortality
[10] = Aphis medicaginis, 24 h, read-out: The average mortality

CC1(C)[C@@H](C=CCl)[C@@H]1C(=O)OC(C#N)c1ccc(F)c(Oc2ccccc2)c1 (relative stereo) [Compound 3, Trans-α-cyano-3-phenoxy-4-fluoro-benzyl-2,2-dimethyl-3-(2-chlorovinyl)cyclopropane carboxylate] gave an LC50 ([1]; Culex pipiens pallens fourth instar wiggler, immersing method, mortality after 24 hours, 26±1° C., read-out: LC50) of 5.5 ng/mL (≈ 0.0138 µM), a Relative toxicity [1] of 193 and a mortality at 0.5 ppm ([2]; 0.5 ppm, after 48 hours, read-out: The average mortality) of 0%. For the same molecule, the mortality at 1 ppm ([2]; 1 ppm, after 48 hours, read-out: The average mortality) was 0%, the mortality at 5 ppm ([2]; 5 ppm, after 48 hours, read-out: The average mortality) was 100% and the mortality at 50 ppm ([2]; 50 ppm, after 48 hours, read-out: The average mortality) was 100%. It also gave a mortality at 500 ppm ([2]; 500 ppm, after 48 hours, read-out: The average mortality) of 100%, a mortality at 0.5 ppm ([3]; Aphis medicaginis, aphids, 0.5 ppm, after 24 hours, read-out: The average mortality) of 0% and a mortality at 1 ppm ([3]; Aphis medicaginis, aphids, 1 ppm, after 24 hours, read-out: The average mortality) of 66.3%. For the same molecule, the mortality at 5 ppm ([3]; Aphis medicaginis, aphids, 5 ppm, after 24 hours, read-out: The average mortality) was 83.7%, the mortality at 50 ppm ([3]; Aphis medicaginis, aphids, 50 ppm, after 24 hours, read-out: The average mortality) was 100% and the mortality at 500 ppm ([3]; Aphis medicaginis, aphids, 500 ppm, after 24 hours, read-out: The average mortality) was 100%. For the same molecule, the The average mortality ([4]; 1 mg/L) was 0%, the The average mortality ([4]; 5 mg/L) was 0% and the The average mortality ([4]; 50 mg/L) was 7.8%. The The average mortality ([4]; 500 mg/L) was 100%, the KT50 [5] was 5.80 and the KT50 [6] was 8.14.

Work on CC1(C)[C@@H](C=CCl)[C@@H]1C(=O)OCc1c(F)c(F)cc(F)c1F (relative stereo) [Compound 9, trans-2,3,5,6-tetrafluoro-4-benzyl-3-(2-chlorovinyl)-2,2-dimethylcyclopropane carboxylat, reference compound] yielded an LC50 ([1]; Culex pipiens pallens fourth instar wiggler, immersing method, mortality after 24 hours, 26±1° C.) of 249.2 ng/mL (≈ 0.74 µM), a Relative toxicity [1] of 4 and a The average mortality ([2]; 0.5 ppm, after 48 hours) of 0%. It also gave a The average mortality ([2]; 1 ppm, after 48 hours) of 0%, a The average mortality ([2]; 5 ppm, after 48 hours) of 0% and a The average mortality ([2]; 50 ppm, after 48 hours) of 100%. For the same molecule, the The average mortality ([2]; 500 ppm, after 48 hours) was 100%, the The average mortality ([3]; aphids, 0.5 ppm, after 24 hours) was 0% and the The average mortality ([3]; aphids, 1 ppm, after 24 hours) was 0%. For the same molecule, the The average mortality ([3]; aphids, 5 ppm, after 24 hours) was 0%, the The average mortality ([3]; aphids, 50 ppm, after 24 hours) was 18.8% and the The average mortality ([3]; aphids, 500 ppm, after 24 hours) was 100%. The The average mortality ([4]; 1 mg/L) was 0%, the The average mortality ([4]; 5 mg/L) was 0% and the The average mortality ([4]; 50 mg/L) was 0%. The The average mortality ([4]; 500 mg/L) was 0%, the KT50 [5] was 9.51 and the KT50 [6] was 12.0.

In the case of CC1(C)[C@H](C=CCl)[C@@H]1C(=O)OC(C#N)c1ccc(F)c(Oc2ccccc2)c1 (relative stereo) [Compound 2, cis-α-cyano-3-phenoxy-4-fluoro-benzyl-2,2-dimethyl-3-(2-chlorovinyl)cyclopropane carboxylate], the “relative toxicity versus cypermethrin” value ([1]; Culex pipiens pallen larvae) is reported as 22.55 times, the “relative toxicity versus deltamethrin” value ([1]; Culex pipiens pallen larvae) is reported as 2.55 times and the “relative toxicity versus the compounds in comparative examples 1-6” value ([1]; Culex pipiens pallen larvae) is reported as 125-1128 times. For the same molecule, the LC50 ([1]; Culex pipiens, 24 h) was 0.47 ng/mL (≈ 0.00118 µM), the “relative toxicity versus deltamethrin, estimated for the single chiral isomer” value ([1]; extrapolated 4*2.55 from the racemate of four chiral isomers) was 10 times and the Relative toxicity [1] was 2255. For the same molecule, the mortality at 0.25 ppm [2, 9] was 0%, the mortality at 0.5 ppm [2, 9] was 33.3% and the mortality at 1 ppm [2, 9] was 66.7%. For the same molecule, the mortality at 5 ppm [2, 9] was 100%, the mortality at 50 ppm [2, 9] was 100% and the mortality at 500 ppm [2, 9] was 100%. For the same molecule, the mortality at 0.25 ppm [3, 10] was 0%, the mortality at 0.5 ppm [3, 10] was 28.8% and the mortality at 1 ppm [3, 10] was 84.3%. For the same molecule, the mortality at 5 ppm [3, 10] was 89.5%, the mortality at 50 ppm [3, 10] was 100% and the mortality at 500 ppm [3, 10] was 100%. For the same molecule, the The average mortality ([4]; 1 mg/L) was 0%, the The average mortality ([4]; 5 mg/L) was 11.9% and the The average mortality ([4]; 50 mg/L) was 91.1%. For the same molecule, the The average mortality ([4]; 500 mg/L) was 100%, the KT50 [5] was 3.49 and the KT50 [6] was 5.12. The degraded by light [7] was 30%, the “photodegradation rate relative to the corresponding dichloride compound” value [7] was 1.9 times and the LD50 ([8]; female) was 158 mg/kg. The LD50 ([8]; male) was 116 mg/kg.
